Two substances from patent EP1625854B1, “Albumin conjugates containing a glucuronic linker” (Deutsches Krebsforschungszentrum Stiftung des öffentlichen …, priority 2004, dated 2006) can be followed below.

In one data set the test system is WEHI-7 cells. Nature of the data set: Induction of cell death in glucocorticoid-sensitive WEHI-7 cells (propidium iodide staining, fluorimetric analysis). It counts as cell-based, mouse. As to the method:
Cell death in glucocorticoid-sensitive WEHI-7 cells was induced by incubation with low molecular hydrocortisone (HC) and albumin-coupled hydrocortisone (hydrocortisone-21-β-D-glucuronide-HSA; HCG-HSA) over a period of 72 h. Different albumin concentrations were equalized by addition of free HSA. Dead cells were determined by fluorimetric analysis (staining with propidium iodide (PI)). […] Since the albumin conjugate was taken up by the cells via endocytosis (whereas the free HC passes the cell membrane via diffusion) HCG-HSA has to be applied in a two-fold concentration for achieving the same effect.

Data set [1] deals with synovial fibroblasts (sFb). Nature of the data set: Release of a fluorescent aglycon (methyl umbelliferon) from MUG-HSA in human synovial fibroblasts. It counts as cell-based. An excerpt: (§1) The amounts given in the Figure relate to 1 well and the methyl umbelliferon glucuronide within the HSA conjugate. After addition of 1 M NaOH methyl umbelliferon was fluorimetrically determined in the cell subernatant at 448 nm with an excitation at 360 nm. […] Thus, despite its coupling to albumin MUG-HSA is a substrate for human synovial fribroblasts. MUG-(HSA) is stable in medium without cells.

Data set [2] in a line: Stability of MUG-HSA in medium without cells. In kind it is in vitro ADME.
Excerpt: as §1

As for “hydrocortisone-21-β-D-glucuronide-HSA [HCG-HSA]”, in the data set on WEHI-7 cells (HCG-HSA relative to free HC, WEHI-7 cells, 72 h), the “concentration for achieving the same effect” value was “two-fold”. In the data set on WEHI-7 cells (despite coupling to albumin, WEHI-7 cells, 72 h), the “activity as a glucocorticoid” value is on record as “keeps its activity”. For the same substance, the Cell death result in the data set on WEHI-7 cells (incubation over 72 h, albumin concentrations equalized with free HSA, dead cells by PI staining, Figure 3) is “dose dependent cell death”.
As for “methyl umbelliferon glucuronide-HSA [MUG-HSA]”, the “cleavage of fluorescent methyl umbelliferon” value in data set [1] (in conditioned medium of synovial fibroblasts) is “could be demonstrated”. Besides, the Cleavage entry in data set [1] (incubation for 24 h in synovial fibroblasts, methyl umbelliferon fluorimetrically determined in supernatant at 448 nm, excitation 360 nm, Figure 4) was “could be demonstrated”. Besides, the stability in medium result in data set [2] is given as “stable”.
